Experimental data from patent publication US20240383913A1, “THIOPHENE RING COMPOUND, PREPARATION METHOD THEREFOR AND APPLICATION THEREOF” (CENTER FOR EXCELLENCE IN MOLECULAR CELL SCIENCE, CHINESE …, priority 2021, published 2024).

How the values were obtained:
[1] = system: hyperlocomotion of the mice induced by MK801; assay: Open field test, hyperlocomotion induced by MK801; assay type: in vivo, C57B6 male mice; details: for Distance travelled (cm): 5-minute bin
Experimental: Experimental method: The experimental animals were C57B6 male mice, n=8 in each group. This model used C57B6 mice as experimental animals. Hyperlocomotion of the mice in open field was induced by acute injection of a NMDA antagonist MK801. and modeled to test the inhibitory effect of different compounds on hyperkinesia phenotype induced by MK801. All mouse behavior experiments were carried out during the light period, and the whole process was recorded by the camera and locomotive data were tracked and analyzed by behavioral tracking software. The compounds were administered intraperitoneally. Immediately after the injection, the mice entered the open field and their movement trajectories were recorded by the camera. After 30 minutes, the mice received 0.2 mg/kg of MK801 by intraperitoneal injection and returned to the open field immediately after administration and the movement trajectories were further recorded for 120 minutes. The accumulative travelled distance of the mice was counted in a 5-minute bin. Data statistics were performed using Student-t-test analysis, *p<0.05, ** p<0.01, *** p<0.001, **** p<0.0001.

[2] = system: restraint-induced depression-like behaviors; assay: Forced swimming test after 5-hour restraint; assay type: in vivo, C57B6 male mice
Experimental: The experimental animals were C57B6 male mice, n=8 in each group. 5-hour restraint were used to develop depression-like behavioral representations of the mice, then the effects of the compounds on their “depression-like” behaviors were measured according to behavioral performance in tail suspension test and forced swimming test. The specific experimental procedures were as follows: Firstly, the mice were restrained using a mouse fixator for tail vein injection. During the restraint process, all movement abilities of the mice were restricted under the condition of introducing minimal pain to the mice. Compounds were administered intraperitoneally twice, before and after restraint, respectively. After compound administration, the mice returned to the cage to recover for 30 minutes. […]
Forced swimming test: the mice were placed in a 5 L glass beaker filled with water, with the water level at 15 cm height, and the mice were forced to swim continuously in the beaker for 6 minutes. […] The duration of the immobility behavior was recorded intermittently for the remaining 4 minutes, and the immobility behavior of the mice was defined as: the mice float passively on the surface of the water without movement, with only small local movements required to maintain afloat. The duration of this immobility was measured to assess the level of behavioral despair in the mice. […]

CN(C)C(=O)N[C@H]1CC[C@H](CCN2CCN3c4cccc5scc(c45)CC3C2)CC1 (single isomer, unassigned; (-)) [(−)-I-27]
Distance travelled (cm) ([1]; (−)-I-27 0.2 mg/kg i.p. + MK801 0.2 mg/kg, 70 minutes after MK801): 449.29 ± 121.61 cm
Distance travelled (cm) ([1]; (−)-I-27 0.2 mg/kg i.p. + MK801 0.2 mg/kg, 75 minutes after MK801): 564.58 ± 153.01 cm
Distance travelled (cm) ([1]; (−)-I-27 0.2 mg/kg i.p. + MK801 0.2 mg/kg, 80 minutes after MK801): 501.93 ± 119.91 cm
Distance travelled (cm) ([1]; (−)-I-27 0.2 mg/kg i.p. + MK801 0.2 mg/kg, 85 minutes after MK801): 471.35 ± 107.44 cm
Distance travelled (cm) ([1]; (−)-I-27 0.2 mg/kg i.p. + MK801 0.2 mg/kg, 90 minutes after MK801): 399.78 ± 105.26 cm
Distance travelled (cm) ([1]; (−)-I-27 0.2 mg/kg i.p. + MK801 0.2 mg/kg, 95 minutes after MK801): 301.32 ± 70.58 cm
Distance travelled (cm) ([1]; (−)-I-27 0.2 mg/kg i.p. + MK801 0.2 mg/kg, 100 minutes after MK801): 268.55 ± 74.28 cm
Distance travelled (cm) ([1]; (−)-I-27 0.2 mg/kg i.p. + MK801 0.2 mg/kg, 105 minutes after MK801): 299.24 ± 98.85 cm
Distance travelled (cm) ([1]; (−)-I-27 0.2 mg/kg i.p. + MK801 0.2 mg/kg, 110 minutes after MK801): 378.85 ± 88.69 cm
Distance travelled (cm) ([1]; (−)-I-27 0.2 mg/kg i.p. + MK801 0.2 mg/kg, 115 minutes after MK801): 236.86 ± 61.21 cm
Distance travelled (cm) ([1]; (−)-I-27 0.2 mg/kg i.p. + MK801 0.2 mg/kg, 120 minutes after MK801): 183.04 ± 51.72 cm
Distance travelled (cm) ([1]; (−)-I-27 0.2 mg/kg i.p., 0 minutes, before MK801): 426.03 ± 34.51 cm
Distance travelled (cm) ([1]; (−)-I-27 0.2 mg/kg i.p., −5 minutes, before MK801): 420.23 ± 44.8 cm
Distance travelled (cm) ([1]; (−)-I-27 0.2 mg/kg i.p., −10 minutes, before MK801): 462.71 ± 40.83 cm
Distance travelled (cm) ([1]; (−)-I-27 0.2 mg/kg i.p., −15 minutes, before MK801): 534.93 ± 50.26 cm
Distance travelled (cm) ([1]; (−)-I-27 0.2 mg/kg i.p., −20 minutes, before MK801): 614.02 ± 31.52 cm
Distance travelled (cm) ([1]; (−)-I-27 0.2 mg/kg i.p., −25 minutes, before MK801): 741.08 ± 56.17 cm
Distance (cm) travelled in 45 minutes ([1]; (−)-I-27 0.4 mg/kg i.p. + MK801 0.2 mg/kg, 0-45 minute interval after MK-801): 4056.3 cm
Distance travelled (cm) ([1]; (−)-I-27 0.4 mg/kg i.p. + MK801 0.2 mg/kg, 5 minutes after MK801): 479.22 ± 57.64 cm
Distance travelled (cm) ([1]; (−)-I-27 0.4 mg/kg i.p. + MK801 0.2 mg/kg, 10 minutes after MK801): 277.07 ± 32.68 cm
Distance travelled (cm) ([1]; (−)-I-27 0.4 mg/kg i.p. + MK801 0.2 mg/kg, 15 minutes after MK801): 316.03 ± 70.39 cm
Distance travelled (cm) ([1]; (−)-I-27 0.4 mg/kg i.p. + MK801 0.2 mg/kg, 20 minutes after MK801): 370.1 ± 75.27 cm
Distance travelled (cm) ([1]; (−)-I-27 0.4 mg/kg i.p. + MK801 0.2 mg/kg, 25 minutes after MK801): 403.74 ± 108.16 cm
Distance travelled (cm) ([1]; (−)-I-27 0.4 mg/kg i.p. + MK801 0.2 mg/kg, 30 minutes after MK801): 584.67 ± 129.63 cm
Distance travelled (cm) ([1]; (−)-I-27 0.4 mg/kg i.p. + MK801 0.2 mg/kg, 35 minutes after MK801): 633.6 ± 143.49 cm
Distance travelled (cm) ([1]; (−)-I-27 0.4 mg/kg i.p. + MK801 0.2 mg/kg, 40 minutes after MK801): 483.45 ± 104.6 cm
Distance travelled (cm) ([1]; (−)-I-27 0.4 mg/kg i.p. + MK801 0.2 mg/kg, 45 minutes after MK801): 508.42 ± 110.56 cm
Distance travelled (cm) ([1]; (−)-I-27 0.4 mg/kg i.p. + MK801 0.2 mg/kg, 50 minutes after MK801): 541.28 ± 85 cm
Distance travelled (cm) ([1]; (−)-I-27 0.4 mg/kg i.p. + MK801 0.2 mg/kg, 55 minutes after MK801): 483.29 ± 71.91 cm
Distance travelled (cm) ([1]; (−)-I-27 0.4 mg/kg i.p. + MK801 0.2 mg/kg, 60 minutes after MK801): 421.36 ± 61.47 cm
Distance travelled (cm) ([1]; (−)-I-27 0.4 mg/kg i.p. + MK801 0.2 mg/kg, 65 minutes after MK801): 371.77 ± 42.78 cm
Distance travelled (cm) ([1]; (−)-I-27 0.4 mg/kg i.p. + MK801 0.2 mg/kg, 70 minutes after MK801): 347.51 ± 55.13 cm
Distance travelled (cm) ([1]; (−)-I-27 0.4 mg/kg i.p. + MK801 0.2 mg/kg, 75 minutes after MK801): 296.62 ± 78.74 cm
Distance travelled (cm) ([1]; (−)-I-27 0.4 mg/kg i.p. + MK801 0.2 mg/kg, 80 minutes after MK801): 244.49 ± 76.54 cm
Distance travelled (cm) ([1]; (−)-I-27 0.4 mg/kg i.p. + MK801 0.2 mg/kg, 85 minutes after MK801): 160.39 ± 34.08 cm
Distance travelled (cm) ([1]; (−)-I-27 0.4 mg/kg i.p. + MK801 0.2 mg/kg, 90 minutes after MK801): 386.57 ± 158.41 cm
Distance travelled (cm) ([1]; (−)-I-27 0.4 mg/kg i.p. + MK801 0.2 mg/kg, 95 minutes after MK801): 201.39 ± 68.43 cm
Distance travelled (cm) ([1]; (−)-I-27 0.4 mg/kg i.p. + MK801 0.2 mg/kg, 100 minutes after MK801): 234.28 ± 63.3 cm
Distance travelled (cm) ([1]; (−)-I-27 0.4 mg/kg i.p. + MK801 0.2 mg/kg, 105 minutes after MK801): 229.02 ± 63.13 cm
Distance travelled (cm) ([1]; (−)-I-27 0.4 mg/kg i.p. + MK801 0.2 mg/kg, 110 minutes after MK801): 210.95 ± 45.58 cm
Distance travelled (cm) ([1]; (−)-I-27 0.4 mg/kg i.p. + MK801 0.2 mg/kg, 115 minutes after MK801): 323.92 ± 121.74 cm
Distance travelled (cm) ([1]; (−)-I-27 0.4 mg/kg i.p. + MK801 0.2 mg/kg, 120 minutes after MK801): 324.23 ± 68.48 cm
Distance travelled (cm) ([1]; (−)-I-27 0.4 mg/kg i.p., 0 minutes, before MK801): 441.97 ± 55.83 cm
Distance travelled (cm) ([1]; (−)-I-27 0.4 mg/kg i.p., −5 minutes, before MK801): 317.51 ± 24.51 cm
Distance travelled (cm) ([1]; (−)-I-27 0.4 mg/kg i.p., −10 minutes, before MK801): 419.17 ± 56.13 cm
Distance travelled (cm) ([1]; (−)-I-27 0.4 mg/kg i.p., −15 minutes, before MK801): 374.1 ± 25.44 cm
Distance travelled (cm) ([1]; (−)-I-27 0.4 mg/kg i.p., −20 minutes, before MK801): 475.66 ± 9.82 cm
Distance travelled (cm) ([1]; (−)-I-27 0.4 mg/kg i.p., −25 minutes, before MK801): 903.06 ± 46.43 cm
Immobility time (seconds), forced swimming test ([2]; (−)-I-27 0.025 mg/kg i.p.): 91.83 ± 6.80 s
Immobility time (seconds), forced swimming test ([2]; (−)-I-27 0.1 mg/kg i.p.): 56.89 ± 4.80 s
